Test results from the supplement of paper PMC11451515.

Test system: NOMO1
Test: cell viability relative to DMSO control; higher = less cytotoxic
Conditions: 48 h
How it was run: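 NOMO1 or SEM (500 cells/well) or P12-Ichikawa (1000 cells/well) leukemia cells were adapted for at least four passages in each medium. They were seeded in 1536-well plates (5 μl) and pin-dosed with library compounds in DMSO over an 11-point threefold series, 47 μM to 0.79 nM. CellTiter-Glo One luminescence was read after 48 h at 37°C. Viability is the per-plate percentage relative to DMSO wells, with cell-free wells as background.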

[1] = HPLM + 10% dialyzed FBS, 0.000781 µM
[2] = HPLM + 10% dialyzed FBS, 0.00234 µM
[3] = HPLM + 10% dialyzed FBS, 0.00702 µM
[4] = HPLM + 10% dialyzed FBS, 0.0211 µM
[5] = HPLM + 10% dialyzed FBS, 0.0632 µM
[6] = HPLM + 10% dialyzed FBS, 0.19 µM
[7] = HPLM + 10% dialyzed FBS, 0.569 µM
[8] = HPLM + 10% dialyzed FBS, 1.71 µM
[9] = HPLM + 10% dialyzed FBS, 5.12 µM
[10] = HPLM + 10% dialyzed FBS, 15.4 µM
[11] = HPLM + 10% dialyzed FBS, 46.1 µM
[12] = RPMI 5 mM glucose + 10% FBS, 0.000781 µM
[13] = RPMI 5 mM glucose + 10% FBS, 0.00234 µM
[14] = RPMI 5 mM glucose + 10% FBS, 0.00702 µM
[15] = RPMI 5 mM glucose + 10% FBS, 0.0211 µM
[16] = RPMI 5 mM glucose + 10% FBS, 0.0632 µM
[17] = RPMI 5 mM glucose + 10% FBS, 0.19 µM
[18] = RPMI 5 mM glucose + 10% FBS, 0.569 µM
[19] = RPMI 5 mM glucose + 10% FBS, 1.71 µM
[20] = RPMI 5 mM glucose + 10% FBS, 5.12 µM
[21] = RPMI 5 mM glucose + 10% FBS, 15.4 µM
[22] = RPMI 5 mM glucose + 10% FBS, 46.1 µM
[23] = RPMI 5 mM glucose + 10% dialyzed FBS, 0.000781 µM
[24] = RPMI 5 mM glucose + 10% dialyzed FBS, 0.00234 µM
[25] = RPMI 5 mM glucose + 10% dialyzed FBS, 0.00702 µM
[26] = RPMI 5 mM glucose + 10% dialyzed FBS, 0.0211 µM
[27] = RPMI 5 mM glucose + 10% dialyzed FBS, 0.0632 µM
[28] = RPMI 5 mM glucose + 10% dialyzed FBS, 0.19 µM
[29] = RPMI 5 mM glucose + 10% dialyzed FBS, 0.569 µM
[30] = RPMI 5 mM glucose + 10% dialyzed FBS, 1.71 µM
[31] = RPMI 5 mM glucose + 10% dialyzed FBS, 5.12 µM
[32] = RPMI 5 mM glucose + 10% dialyzed FBS, 15.4 µM
[33] = RPMI 5 mM glucose + 10% dialyzed FBS, 46.1 µM

Structure (SMILES)	cell viability [1]	cell viability [2]	cell viability [3]	cell viability [4]	cell viability [5]	cell viability [6]	cell viability [7]	cell viability [8]	cell viability [9]	cell viability [10]	cell viability [11]	cell viability [12]	cell viability [13]	cell viability [14]	cell viability [15]	cell viability [16]	cell viability [17]	cell viability [18]	cell viability [19]	cell viability [20]	cell viability [21]	cell viability [22]	cell viability [23]	cell viability [24]	cell viability [25]	cell viability [26]	cell viability [27]	cell viability [28]	cell viability [29]	cell viability [30]	cell viability [31]	cell viability [32]	cell viability [33]
CC[C@H](NC(C)C)[C@H](O)c1ccc(O)c2[nH]c(=O)ccc12	113%	103%	108%	97.6%	108%	113%	124%	107%	108%	96.8%	104%	91.2%	95.8%	88.7%	95.7%	84.6%	107%	101%	94.5%	97%	84.1%	90.6%	84.7%	109%	104%	94.4%	102%	107%	96.9%	95.3%	94.6%	87%	91.2%
O=C(C[C@@H]1C/C=C\CCC(=O)O[C@H](c2ccccc2)CNC1=O)NCc1ccc(Cl)cc1	112%	125%	117%	125%	111%	138%	133%	114%	121%	118%	114%	87.2%	106%	120%	109%	104%	115%	114%	102%	109%	98.5%	110%	92.2%	114%	99.3%	111%	113%	117%	120%	125%	105%	111%	99.5%
Cn1c(=O)c2[nH]cnc2n(C)c1=O	120%	111%	121%	122%	92.5%	115%	120%	106%	110%	102%	84.8%	114%	103%	103%	104%	94%	100%	101%	113%	95.8%	99%	93.6%	101%	108%	104%	100%	108%	96.3%	92.2%	99.7%	106%	97.5%	87.7%
OC1=CC2=C(C(=O)\C=C(/O2)C3=CC=CC=C3)C(=C1O)O	93.6%	102%	117%	107%	111%	106%	108%	92.2%	72.6%	82.8%	83.1%	118%	105%	105%	115%	96.8%	111%	103%	111%	84%	52.4%	57.4%	113%	108%	110%	107%	102%	112%	106%	98.6%	96%	55.2%	64.9%
COc1ccc2c(OCc3nnc4ccc(-c5ccccc5)nn34)ccnc2c1	94.4%	98.9%	86.7%	92.8%	90.2%	93.9%	104%	83.9%	94%	104%	65.2%	113%	123%	116%	116%	117%	114%	117%	116%	112%	113%	116%	113%	123%	133%	119%	129%	102%	131%	116%	115%	119%	122%
CCCOc1ccc2[nH]c(NC(=O)OC)nc2c1	116%	116%	104%	102%	76.5%	36.9%	31.7%	32%	50.3%	36.6%	36.6%	122%	116%	120%	121%	98.3%	28.6%	21.1%	19.4%	26.7%	22.6%	25.2%	–	–	–	–	–	–	–	–	–	–	–
Nc1nc(Nc2ccc([S+](N)(=O)[O-])cc2)nn1C(=O)c1c(F)cccc1F	94.7%	97.4%	90.6%	113%	105%	109%	102%	107%	120%	66.1%	7.01%	94.7%	87.8%	107%	94%	94.7%	99.3%	93.8%	87.2%	93.2%	50.4%	8.21%	98.7%	86.1%	100%	91.5%	86.9%	92.7%	93.1%	104%	84.4%	49.5%	5.65%
C[N]1N=CC2=C1C=C(C(=C2)OC3=CC=C(NC(=O)\C4=C\C=C(\C)N(C4=O)C5=CC=C(F)C=C5)C=C3F)C6=C[NH]N=C6	107%	131%	117%	126%	133%	141%	132%	125%	86.1%	25.3%	15.6%	113%	112%	111%	121%	127%	107%	116%	118%	104%	16.4%	11.9%	121%	117%	118%	108%	122%	125%	124%	115%	100%	30%	16.2%
